The record followed here is US20080161232A1, “C5a Receptor Antagonist” (JERINI AG, priority 2005, published 2008).

Starred links: 1 amine or outer side, 2 acyl side, 3 side chain; linkers in the order of their positions; H or OH if unused. Positions of bridges follow the written chain, without caps; N, C: chain ends. Non-standard residues stand in square brackets, D forms with d. Residues, ends and D or L forms follow the SMILES beside them. *: point of attachment. Ala(piperidin-4-yl) = O=C([C@H](CC1CCN([*:3])CC1)N[*:1])[*:2]; dβ3hPhg = O=C(C[C@H](N[*:1])c1ccccc1)[*:2]; Phe(3-OMe) = COc1cccc(C[C@H](N)C(=O)O)c1; Phe(4-Cl) = N[C@@H](Cc1ccc(Cl)cc1)C(=O)O; NMe2Phe = CN(C)[C@@H](Cc1ccccc1)C(=O)*; Phe(3-F) = N[C@@H](Cc1cccc(F)c1)C(=O)O; Phe(4-F) = N[C@@H](Cc1ccc(F)cc1)C(=O)O; Bta = N[C@@H](Cc1csc2ccccc12)C(=O)O; Hyp = O=C(O)[C@@H]1C[C@@H](O)CN1; d(hLeu) = CC(C)CC[C@@H](N)C(=O)O; Tic = O=C(O)[C@@H]1Cc2ccccc2CN1; 2Thi = N[C@@H](Cc1cccs1)C(=O)O; dCha = N[C@H](CC1CCCCC1)C(=O)O; NMeS = CN[C@@H](CO)C(=O)O; Pip = O=C(O)[C@@H]1CCCCN1; Nle = CCCC[C@H](N)C(=O)O; Orn = NCCC[C@H](N)C(=O)O; Aze = O=C(O)[C@@H]1CCN1; Dab = NCC[C@H](N)C(=O)O

The test has as its target T1, human C5aR(CD88) (Homo sapiens, UniProt P21730).
T1 construct: expressed in transfected cells; host or cells: rat basophilic leukemia cells (RBL)
T1 sequence (P21730 1-350): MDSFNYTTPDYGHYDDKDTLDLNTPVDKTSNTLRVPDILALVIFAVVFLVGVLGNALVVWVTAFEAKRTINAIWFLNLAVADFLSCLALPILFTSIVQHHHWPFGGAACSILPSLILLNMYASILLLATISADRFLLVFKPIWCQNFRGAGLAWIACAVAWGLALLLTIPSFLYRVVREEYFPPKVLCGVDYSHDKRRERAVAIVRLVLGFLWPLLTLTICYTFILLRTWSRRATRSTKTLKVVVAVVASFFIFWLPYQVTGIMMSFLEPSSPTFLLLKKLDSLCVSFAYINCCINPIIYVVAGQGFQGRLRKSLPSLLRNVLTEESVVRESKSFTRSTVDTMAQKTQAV
Description: Determination of the IC50 value in an enzyme release assay (functional assay, antagonistic activity). The conditions noted are these: antagonistic activity; IC50 group in enzyme release assay, RBL cells expressing human C5aR(CD88); read-out: activity (group). The class given is cell-based.
For the compound `CCCC[C@@H]1NC(=O)[C@H](Cc2c[nH]c3ccccc23)NC(=O)[C@@H](CC2CCCCC2)NC(=O)[C@@H]2CCCN2C(=O)[C@@H](NC(=O)[C@@H](N)Cc2ccccc2)CCCNC1=O` [Compound 376, H-Phe-[Orn-Pro-cha-Trp-Nle]] (H-F[Orn]P[dCha]W[Nle]; lactam 2-C), the IC50 was 50 to 200 nM.
The figure for `CC(=O)N[C@@H](Cc1ccccc1)C(=O)N[C@H]1CCCNC(=O)[C@H](CCN)NC(=O)[C@H](Cc2c[nH]c3ccccc23)NC(=O)[C@@H](CC2CCCCC2)NC(=O)[C@@H]2CCCN2C1=O` [compound 25] (Ac-F[Orn]P[dCha]W[Dab]; lactam 2-C) is 50 to 200 nM.
As to `CC(=O)N[C@@H](Cc1ccccc1)C(=O)N[C@@H](CCCN)C(=O)N[C@@H](C)C(=O)N[C@H](CC1CCCCC1)C(=O)N[C@@H](Cc1c[nH]c2ccccc12)C(=O)N[C@@H](Cc1ccccc1)C(N)=O` [Compound 79, Ac-Phe-Orn-Ala-cha-Trp-Phe-NH2] (Ac-F[Orn]A[dCha]WF-NH2), the IC50 was in the range of 50 to 200 nM.
For `CC(=O)N[C@@H](Cc1ccccc1)C(=O)N[C@@H](CCCN)C(=O)N1CCC[C@H]1C(=O)N[C@H](CCC(C)C)C(=O)N[C@@H](Cc1csc2ccccc12)C(=O)N[C@@H](Cc1ccc(Cl)cc1)C(N)=O` [Compound 278, Ac-Phe-Orn-Pro-hle-Bta-Pcf-NH2] (Ac-F[Orn]P[d(hLeu)][Bta][Phe(4-Cl)]-NH2), the IC50 is 50 to 200 nM.
With `COc1cccc(C[C@H](NC(=O)[C@@H](CCC(C)C)NC(=O)[C@@H]2CCCN2C(=O)[C@H](CCCN)NC(=O)[C@H](Cc2ccccc2)NC(C)=O)C(=O)N[C@@H](Cc2ccccc2)C(N)=O)c1` [Compound 293, Ac-Phe-Orn-Pro-hle-Mmy-Phe-NH2] (Ac-F[Orn]P[d(hLeu)][Phe(3-OMe)]F-NH2) the figure was 50 to 200 nM.
Turning to `CC(=O)N[C@@H](Cc1ccccc1)C(=O)N[C@@H](CCCN)C(=O)N1CCC[C@H]1C(=O)N[C@H](CCC(C)C)C(=O)N[C@@H](Cc1cccc(F)c1)C(=O)N[C@@H](Cc1ccccc1)C(N)=O` [Compound 292, Ac-Phe-Orn-Pro-hle-Mff-Phe-NH2] (Ac-F[Orn]P[d(hLeu)][Phe(3-F)]F-NH2), the IC50 was 50 to 200 nM.
With `CCCC[C@@H]1NC(=O)[C@H](Cc2c[nH]c3ccccc23)NC(=O)[C@@H](CC2CCCCC2)NC(=O)[C@H](CO)NC(=O)[C@@H](NC(=O)[C@H](Cc2ccccc2)NC(C)=O)CCCNC1=O` [Compound 200, Ac-Phe-[Orn-Ser-cha-Trp-Nle]] (Ac-F[Orn]S[dCha]W[Nle]; lactam 2-C) the figure was 50 to 200 nM; with `CC(=O)N[C@@H](Cc1ccccc1)C(=O)N[C@@H](CCCN)C(=O)N(C)[C@@H](CO)C(=O)N[C@H](CC1CCCCC1)C(=O)N[C@@H](Cc1csc2ccccc12)C(=O)N[C@@H](Cc1ccccc1)C(N)=O` [Compound 247, Ac-Phe-Orn-NMS-cha-Bta-Phe-NH2] (Ac-F[Orn][NMeS][dCha][Bta]F-NH2), 50 to 200 nM.
Regarding `CC(=O)N[C@@H](Cc1ccccc1)C(=O)N[C@@H](CCCN)C(=O)N1Cc2ccccc2C[C@H]1C(=O)N[C@H](CC1CCCCC1)C(=O)N[C@@H](Cc1c[nH]c2ccccc12)C(=O)N[C@@H](Cc1ccccc1)C(=O)O` [Compound 116, Ac-Phe-Orn-Tic-cha-Trp-Phe-OH] (Ac-F[Orn][Tic][dCha]WF-OH), the IC50 lay within 200 to 2000 nM.
As for `CN(C)[C@@H](Cc1ccccc1)C(=O)N[C@@H](CCCN)C(=O)N1CCC[C@H]1C(=O)N[C@H](CC1CCCCC1)C(=O)N[C@@H](Cc1c[nH]c2ccccc12)C(=O)N[C@@H](Cc1ccccc1)C(N)=O` [Compound 69, Me2-Phe-Orn-Pro-cha-Trp-Phe-NH2] (NMe2Phe-[Orn]P[dCha]WF-NH2), the IC50 lay within 50 to 200 nM.
The figure for `CC(=O)N[C@@H](Cc1ccccc1)C(=O)N[C@H]1CCCNC(=O)[C@H](CC2CCNCC2)NC(=O)[C@H](Cc2c[nH]c3ccccc23)NC(=O)[C@@H](CC2CCCCC2)NC(=O)[C@@H]2CCCN2C1=O` [compound 27] (Ac-F[Orn]P[dCha]W[Ala(piperidin-4-yl)]; lactam 2-C) is greater than 2000 nM; for `CC(=O)N[C@@H](Cc1ccccc1)C(=O)N[C@@H](CCCN)C(=O)N1CCCC[C@H]1C(=O)N[C@H](CC1CCCCC1)C(=O)N[C@@H](Cc1c[nH]c2ccccc12)C(=O)N[C@@H](Cc1ccccc1)C(=O)O` [Compound 115, Ac-Phe-Orn-Pip-cha-Trp-Phe-OH] (Ac-F[Orn][Pip][dCha]WF-OH) it is 200 to 2000 nM; for `CC(=O)N[C@@H](Cc1ccccc1)C(=O)N[C@H]1CCCNC(=O)[C@H](Cc2ccccc2)NC(=O)[C@H](Cc2c[nH]c3ccccc23)NC(=O)[C@@H](CCC(C)C)NC(=O)[C@@H]2C[C@@H](O)CN2C1=O` [Compound 181, Ac-Phe-[Orn-Hyp-hle-Trp-Phe]] (Ac-F[Orn][Hyp][d(hLeu)]WF; lactam 2-C) it is 20 to 50 nM.
With `CC(=O)N[C@@H](CC(=O)N[C@@H](CCCN)C(=O)N1CCC[C@H]1C(=O)N[C@H](CC1CCCCC1)C(=O)N[C@@H](Cc1csc2ccccc12)C(=O)N[C@@H](Cc1ccccc1)C(N)=O)c1ccccc1` [Compound 125, Ac-Eby-Orn-Pro-cha-Bta-Phe-NH2] (Ac-[dβ3hPhg][Orn]P[dCha][Bta]F-NH2) the figure was 20 to 50 nM.
With `CC(=O)N[C@@H](Cc1ccccc1)C(=O)N[C@@H](CCCN)C(=O)N1CC[C@H]1C(=O)N[C@H](CC1CCCCC1)C(=O)N[C@@H](Cc1ccc(Cl)cc1)C(=O)N[C@@H](Cc1ccccc1)C(N)=O` [Compound 81, Ac-Phe-Orn-Aze-cha-Pcf-Phe-NH2] (Ac-F[Orn][Aze][dCha][Phe(4-Cl)]F-NH2) the figure was 200 to 2000 nM; with `CC(=O)N[C@@H](Cc1cccs1)C(=O)N[C@@H](CCCN)C(=O)N1CC[C@H]1C(=O)N[C@H](CC1CCCCC1)C(=O)N[C@@H](Cc1csc2ccccc12)C(=O)N[C@@H](Cc1ccccc1)C(N)=O` [Compound 66, Ac-Thi-Orn-Aze-cha-Bta-Phe-NH2] (Ac-[2Thi][Orn][Aze][dCha][Bta]F-NH2), 10 to 20 nM; with `CC(=O)N[C@@H](Cc1ccc(F)cc1)C(=O)N[C@@H](CCCN)C(=O)N1CCC[C@H]1C(=O)N[C@H](CCC(C)C)C(=O)N[C@@H](Cc1csc2ccccc12)C(=O)N[C@@H](Cc1ccccc1)C(N)=O` [Compound 170, Ac-Pff-Orn-Pro-hle-Bta-Phe-NH2] (Ac-[Phe(4-F)][Orn]P[d(hLeu)][Bta]F-NH2), 50 to 200 nM.
Take `CC(=O)N[C@@H](Cc1cccs1)C(=O)N[C@@H](CCCN)C(=O)N1CCC[C@H]1C(=O)N[C@H](CC1CCCCC1)C(=O)N[C@@H](Cc1csc2ccccc12)C(=O)N[C@@H](Cc1cccs1)C(N)=O` [Compound 313, Ac-Thi-Orn-Pro-cha-Bta-Thi-NH2] (Ac-[2Thi][Orn]P[dCha][Bta][2Thi]-NH2): the IC50 was 20 to 50 nM.
With `CCCC[C@@H]1NC(=O)[C@H](Cc2c[nH]c3ccccc23)NC(=O)[C@@H](CCC(C)C)NC(=O)[C@@H]2CCCN2C(=O)[C@@H](NC(=O)[C@@H](N)Cc2ccccc2)CCCNC1=O` [Compound 381, H-Phe-[Orn-Pro-hle-Trp-Nle]] (H-F[Orn]P[d(hLeu)]W[Nle]; lactam 2-C) the figure was 20 to 50 nM; with `CC(=O)N[C@@H](Cc1ccccc1)C(=O)N[C@@H](CCC(=O)O)C(=O)N1CCC[C@H]1C(=O)N[C@H](CC1CCCCC1)C(=O)N[C@@H](Cc1c[nH]c2ccccc12)C(=O)N[C@@H](Cc1ccccc1)C(N)=O` [Compound 91, Ac-Phe-Glu-Pro-cha-Trp-Phe-NH2] (Ac-FEP[dCha]WF-NH2), 200 to 2000 nM.
